# Assay results taken from ChEMBL document CHEMBL3885881, “DrugMatrix”.
# Species: Rattus norvegicus
# Assay: DrugMatrix - Regimen: Daily Repeat
# Assay type: toxicity, organism-based, Sprague-Dawley
# Set-up: regimen Daily Repeat, gender Male, age 6-8 weeks
# Details: in vivo, po, route oral GAVAGE, vehicle 100 % WATER; for ABSOLUTE BASOPHIL / ABSOLUTE EOSINOPHIL / ABSOLUTE LYMPHOCYTE / ABSOLUTE MONOCYTE / ABSOLUTE SEGMENTED NEUTROPHIL / BASOPHIL / EOSINOPHIL / ERYTHROCYTE COUNT / HEMATOCRIT / HEMOGLOBIN / LEUKOCYTE COUNT / LYMPHOCYTE / MEAN CORPUSCULAR HEMOGLOBIN / MEAN CORPUSCULAR HEMOGLOBIN CONCENTRATION / MONOCYTE / NEUTROPHIL / NUCLEATED RED BLOOD CELLS / PLATELET COUNT: tissue Blood; for ALANINE AMINOTRANSFERASE / ALBUMIN / ALKALINE PHOSPHATASE / ASPARTATE AMINOTRANSFERASE / BLOOD UREA NITROGEN / CARBON DIOXIDE / CHLORIDE / CREATINE PHOSPHOKINASE / CREATININE / GLUCOSE / LACTATE DEHYDROGENASE / LIPASE / PHOSPHORUS / POTASSIUM / SODIUM / TOTAL BILIRUBIN / TOTAL PROTEIN / URIC ACID / CHOLESTEROL: tissue Plasma
# [1] = 35 mg/kg, 120 h, dose level Low, time 5 day
# [2] = 1300 mg/kg, 72 h, dose level High, time 3 day
# [3] = 1300 mg/kg, 120 h, dose level High, time 5 day
structure (smiles),measurement,setting,value
Nc1ccn([C@@H]2CS[C@H](CO)O2)c(=O)n1 [LAMIVUDINE],ABSOLUTE BASOPHIL,[1],0 CELLS/uL
same,ABSOLUTE EOSINOPHIL,[1],0 CELLS/uL
same,ABSOLUTE LYMPHOCYTE,[1],6530 CELLS/uL
same,ABSOLUTE MONOCYTE,[1],98.67 CELLS/uL
same,ABSOLUTE SEGMENTED NEUTROPHIL,[1],638 CELLS/uL
same,BASOPHIL,[1],0%
same,EOSINOPHIL,[1],0%
same,ERYTHROCYTE COUNT,[1],5.57 x10E6/uL
same,HEMATOCRIT,[1],34.73%
same,HEMOGLOBIN,[1],13.6 G/DL
same,LEUKOCYTE COUNT,[1],7.27 x10E3/uL
same,LYMPHOCYTE,[1],89.67%
same,MEAN CORPUSCULAR HEMOGLOBIN,[1],24.43 pg
same,MEAN CORPUSCULAR HEMOGLOBIN CONCENTRATION,[1],39.2 G/DL
same,MONOCYTE,[1],1.33%
same,NEUTROPHIL,[1],9%
same,NUCLEATED RED BLOOD CELLS,[1],0.33 /100WBC
same,PLATELET COUNT,[1],1079.33 x10E3/uL
same,ALANINE AMINOTRANSFERASE,[1],45.33 u/L
same,ALBUMIN,[1],4.1 G/DL
same,ALKALINE PHOSPHATASE,[1],359.67 u/L
same,ASPARTATE AMINOTRANSFERASE,[1],82.67 u/L
same,BLOOD UREA NITROGEN,[1],16.67 mg/dL
same,CARBON DIOXIDE,[1],31.33 mmol/L
same,CHLORIDE,[1],100.33 MEQ/L
same,CREATINE PHOSPHOKINASE,[1],391.67 u/L
same,CREATININE,[1],0.16 mg/dL
same,GLUCOSE,[1],152 mg/dL
same,LACTATE DEHYDROGENASE,[1],141.33 u/L
same,LIPASE,[1],8.33 u/L
same,PHOSPHORUS,[1],11.47 mg/dL
same,POTASSIUM,[1],5.48 MEQ/L
same,SODIUM,[1],144.47 MEQ/L
same,TOTAL BILIRUBIN,[1],0.2 mg/dL
same,TOTAL PROTEIN,[1],6.13 G/DL
same,URIC ACID,[1],0.6 mg/dL
same,ABSOLUTE BASOPHIL,[2],0 CELLS/uL
same,ABSOLUTE EOSINOPHIL,[2],0 CELLS/uL
same,ABSOLUTE LYMPHOCYTE,[2],11276.67 CELLS/uL
same,ABSOLUTE MONOCYTE,[2],81 CELLS/uL
same,ABSOLUTE SEGMENTED NEUTROPHIL,[2],842.33 CELLS/uL
same,BASOPHIL,[2],0%
same,EOSINOPHIL,[2],0%
same,ERYTHROCYTE COUNT,[2],5.54 x10E6/uL
same,HEMATOCRIT,[2],34.33%
same,HEMOGLOBIN,[2],13.53 G/DL
same,LEUKOCYTE COUNT,[2],12.2 x10E3/uL
same,LYMPHOCYTE,[2],92.33%
same,MEAN CORPUSCULAR HEMOGLOBIN,[2],24.43 pg
same,MEAN CORPUSCULAR HEMOGLOBIN CONCENTRATION,[2],39.4 G/DL
same,MONOCYTE,[2],0.67%
same,NEUTROPHIL,[2],7%
same,NUCLEATED RED BLOOD CELLS,[2],0.33 /100WBC
same,PLATELET COUNT,[2],1155.33 x10E3/uL
same,ALANINE AMINOTRANSFERASE,[2],45.67 u/L
same,ALBUMIN,[2],4 G/DL
same,ALKALINE PHOSPHATASE,[2],373.67 u/L
same,ASPARTATE AMINOTRANSFERASE,[2],80 u/L
same,BLOOD UREA NITROGEN,[2],10.67 mg/dL
same,CARBON DIOXIDE,[2],27 mmol/L
same,CHLORIDE,[2],102.33 MEQ/L
same,CHOLESTEROL,[2],78.67 mg/dL
same,CREATINE PHOSPHOKINASE,[2],337 u/L
same,CREATININE,[2],0.17 mg/dL
same,GLUCOSE,[2],141 mg/dL
same,LACTATE DEHYDROGENASE,[2],297.67 u/L
same,LIPASE,[2],9.67 u/L
same,PHOSPHORUS,[2],11.83 mg/dL
same,POTASSIUM,[2],6.19 MEQ/L
same,SODIUM,[2],143.47 MEQ/L
same,TOTAL BILIRUBIN,[2],0.13 mg/dL
same,TOTAL PROTEIN,[2],5.8 G/DL
same,URIC ACID,[2],1.57 mg/dL
same,ABSOLUTE BASOPHIL,[3],0 CELLS/uL
same,ABSOLUTE EOSINOPHIL,[3],61 CELLS/uL
same,ABSOLUTE LYMPHOCYTE,[3],14479 CELLS/uL
same,ABSOLUTE MONOCYTE,[3],224.33 CELLS/uL
same,ABSOLUTE SEGMENTED NEUTROPHIL,[3],1569 CELLS/uL
same,BASOPHIL,[3],0%
same,EOSINOPHIL,[3],0.33%
same,ERYTHROCYTE COUNT,[3],5.68 x10E6/uL
same,HEMATOCRIT,[3],36.2%
same,HEMOGLOBIN,[3],13.93 G/DL
same,LEUKOCYTE COUNT,[3],16.33 x10E3/uL
same,LYMPHOCYTE,[3],88.67%
same,MEAN CORPUSCULAR HEMOGLOBIN,[3],24.5 pg
same,MEAN CORPUSCULAR HEMOGLOBIN CONCENTRATION,[3],38.5 G/DL
same,MONOCYTE,[3],1.33%
same,NEUTROPHIL,[3],9.67%
same,NUCLEATED RED BLOOD CELLS,[3],0 /100WBC
same,PLATELET COUNT,[3],1204.33 x10E3/uL
same,ALANINE AMINOTRANSFERASE,[3],50 u/L
same,ALBUMIN,[3],3.9 G/DL
same,ALKALINE PHOSPHATASE,[3],303.67 u/L
same,ASPARTATE AMINOTRANSFERASE,[3],84.33 u/L
same,BLOOD UREA NITROGEN,[3],15 mg/dL
same,CARBON DIOXIDE,[3],24.33 mmol/L
same,CHLORIDE,[3],102 MEQ/L
same,CHOLESTEROL,[3],70 mg/dL
same,CREATINE PHOSPHOKINASE,[3],295.33 u/L
same,CREATININE,[3],0.2 mg/dL
same,GLUCOSE,[3],162.67 mg/dL
same,LACTATE DEHYDROGENASE,[3],239 u/L
same,LIPASE,[3],11 u/L
same,PHOSPHORUS,[3],11.9 mg/dL
same,POTASSIUM,[3],6.04 MEQ/L
same,SODIUM,[3],143.87 MEQ/L
same,TOTAL BILIRUBIN,[3],0.17 mg/dL
same,TOTAL PROTEIN,[3],5.73 G/DL
same,URIC ACID,[3],1.53 mg/dL
